Experimental data taken from publication PMC3341351, “Down-Regulation of GABAA Receptor via Promiscuity with the Vasoactive Peptide Urotensin II Receptor. Potential Involvement in Astrocyte Plasticity” (PLoS ONE, 2012).
Entries after “also recorded” stand apart in the source; their conditions may differ. Values belong to the molecule of their own block, whether it stands above or below them. Where no end group is shown, it is not given here.

Assays:
[1] = target: T1, human UT (Homo sapiens, UniProt Q9UKP6); conditions: ref [54], [55]; cited from earlier work
T1 construct: expressed in transfected cells; host or cells: CHO-K1 electroporated with pIRES-neo2-UT, G-418 selected
T1 sequence (Q9UKP6 1-389): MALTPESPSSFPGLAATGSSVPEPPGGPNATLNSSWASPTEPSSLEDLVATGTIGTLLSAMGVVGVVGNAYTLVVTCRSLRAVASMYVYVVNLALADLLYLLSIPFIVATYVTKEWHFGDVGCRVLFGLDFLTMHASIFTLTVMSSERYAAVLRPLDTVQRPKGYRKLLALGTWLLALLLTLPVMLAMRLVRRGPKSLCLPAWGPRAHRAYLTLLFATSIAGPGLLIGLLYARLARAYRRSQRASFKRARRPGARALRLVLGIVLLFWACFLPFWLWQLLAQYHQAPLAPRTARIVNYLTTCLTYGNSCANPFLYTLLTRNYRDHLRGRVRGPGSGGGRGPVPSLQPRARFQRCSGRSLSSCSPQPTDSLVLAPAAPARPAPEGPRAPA

[2] = target: T1, human UT; assay: Fura-2 calcium imaging ([Ca^2+]c) in CHO-UT; type: cell-based
Experimental: (§1) CHO-K1 cell lines were obtained from American Type Culture Collection (Manassas, VA, USA). The human UT stable CHO (CHO-UT) was generously provided by Dr Christophe Dubessy (Inserm, Rouen University, France) et generated by CHO electroporation with 20 µg pIRES-neo2-UT DNA and 500 µg sterile sonicated salmon sperm DNA using the EasyJect One electroporation system (Equibio, Angleur, Belgium), followed by repetitive rounds of limiting dilution of cells in G-418 (400 µg/ml) for selection. Normal or stable CHO was grown in Ham-F12 medium supplemented with 10% FBS, 1% antibiotic-antimicotic solution and 2 mM glutamine, at 37°C in a humidified incubator with an atmosphere of 5% CO2. The stable CHO-UT medium was supplemented with the antibiotic G-418 (40 µg/ml).
For cell calcium imaging, Fura-2 AM (5 mM, Molecular Probe; Fisher, Cergy-Pontoise, France) was dissolved in 20% pluronic F-127 (w/v, DMSO) and then added to culture medium at final concentrations of 5 µM and 0.02%, with 2.5 mM probenecid (Sigma-Aldrich) respectively. Cells were incubated in the dye solution for 1 h in an humidified atmosphere (37°C, 5% CO2) and then rinsed in the standard extracellular solution used for patch-clamp experiments. For simultaneous measurements of intracellular calcium and chloride-evoked currents in CHO, patch-clamp electrodes were filled with an internal solution containing : KCl, 140; MgCl2, 4; Fura-2-pentoK, 0.25; HEPES, 10; ATP, 1; GTP, 0.1 (pH 7.4 adjusted with KOH). Fluorescence images were acquired with the right microscope DMLFSA (Leica) equipped with a digital CCD camera Coolsnap HQ (Photometrics, Roper scientific, Evry, France). A high-speed scanning polychromatic light source was used for alternate excitations at wavelenghts of 340 and 380 nm. The fluorescence intensities at both wavelenghts (F340 and F380) were mesured every 500 ms. Image acquisition and analysis were obtained with a MetaFluor/Metamorph Imaging System (Roper scientific). The ratio between the two images was proportional to the [Ca^2+]c in the cell under study. Before an experiment, the bath ground level of fluorescence (attributable to autofluorescence and camera noise) was determined and systematically substracted.

[3] = system: α2β3γ2 GABAAR in the absence of UT; assay: Patch-clamp of Iso-evoked current in CHO expressing α2β3γ2 GABAAR without UT; type: cell-based; conditions: DMCM 10^−5 M; hUII and URP 10^−8 M; [Orn^5]-URP and palosuran 10^−6 M; Iso 10^−4 M, 2 s; n = 3–18
Experimental: (§2) For transfection, cells were trypsinized (0.05%), triturated in HamF-12 containing 10% FBS media, pelleted by centrifugation, resuspended in 100 µl solution V for nucleofection by an Amaxa Nucleofector Device (Köln, Germany; set to program U-016). Experiments were performed on normal CHO or on the stable CHO-UT cells and transiently transfected with combinations of cDNA encoding α2β3γ2, α2β3γ1, α2β1γ2, α2β3γ1, α2β3, β3γ2 (4 µg of cDNA total/transfection) GABAAR subunits. Cells were seeded on 14-mm poly-L-lysine-coated glass bottom insert dishes at 5×10^5 cells in a volume of 0.5 ml/dish. Cells were incubated overnight at 37°C in a humidified incubator (5% CO2) during 16 h before electrophysiological or immunocytochemical experiments.
(§3) GABAA receptor cDNA clones; α2, β1, β3, γ1 and γ2L engineered into the expression vector pCDM8 ([…], β1, γ2) or pcDNA/Amp (β3, γ1), were generously provided by Dr Wingrove (Merk Sharp and Dohme, Harlow, UK). To obtain β3 ^HA or γ2 ^HA epitope-tagged subunits, β3 or γ2 cDNA was amplified and the PCR product was subcloned using the SalI and NotI sites of pCMV-HA (Table S2) after digestion by the same restriction enzymes.
The conventional whole-cell configuration of the patch-clamp technique was used to study the GABA-gated currents in astrocytes and granule neurons, UT stably transfected CHO, CHO-UT, and CHO transiently transfected with diverse variants of UT and GABAAR subunits. After 24-h transfection, cell culture coverslips were placed in a small chamber (1.5 ml) on a stage of a right microscope DMLFSA (Leica, Heidelberg, Germany) and superfused continuously with the following bath solution containing (in mM): NaCl, 150; KCl, 2.5; HEPES, 5; CaCl2, 2; MgCl2, 1; glucose, 10 (pH 7.4 adjusted with NaOH). The patch pipettes were fabricated from 1.5 mm (outer diameter) soft glass tubes on a two-step vertical pipette puller (List-Medical, L/M-3P-A, Darmstadt, Germany). […] ATP and GTP were added to the internal solution used to fill electrode just before recording. All recordings were obtained at RT with cells voltage-clamped at −70 mV. The GABAA receptor agonist isoguvacine was prepared in the extracellular solution and was applied to cells by pneumatic pressure ejection. To prevent desenzitization, isoguvacine was more often ejected during 5 s at 2-min intervals. ATP, GTP, or guanosine 5′-O-(2-thiodiphosphate) (GDPβS) were administered through the patch pipette solution. We investigated the effect of competitive inhibition of GDP-GTP exchange by including GDPβS in the pipette solution (in addition to the normal amount of GTP). For GDPβS and the KIC, immediately following patch rupture, GABA current recordings were performed and the experiment was commenced after an equilibration period of 15 min. […]

[4] = target: T2, α2β3γ2 GABAAR co-expressed with human UT (Homo sapiens, UniProt Q9UKP6); assay: Patch-clamp of Iso-evoked current in CHO-UT co-expressing α2β3γ2 GABAAR (CHO-UT-GABAAR); type: cell-based
T2 construct: expressed in transfected cells; host or cells: CHO-K1 stably expressing human UT (pIRES-neo2-UT), transiently nucleofected with GABAAR subunit cDNAs
T2 sequence (Q9UKP6 1-389): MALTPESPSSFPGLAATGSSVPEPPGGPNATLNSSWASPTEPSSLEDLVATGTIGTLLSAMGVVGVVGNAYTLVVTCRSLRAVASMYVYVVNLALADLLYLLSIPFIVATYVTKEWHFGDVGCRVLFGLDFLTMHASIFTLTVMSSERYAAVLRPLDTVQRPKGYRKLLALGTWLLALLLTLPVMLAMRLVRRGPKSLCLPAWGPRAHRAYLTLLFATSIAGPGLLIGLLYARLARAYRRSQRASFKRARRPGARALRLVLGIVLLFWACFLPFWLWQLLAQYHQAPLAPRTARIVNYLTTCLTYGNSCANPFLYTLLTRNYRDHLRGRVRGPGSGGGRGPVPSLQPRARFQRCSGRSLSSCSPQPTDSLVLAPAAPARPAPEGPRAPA
Experimental: as §1, §2, §3
The conventional whole-cell configuration of the patch-clamp technique was used to study the GABA-gated currents in astrocytes and granule neurons, UT stably transfected CHO, CHO-UT, and CHO transiently transfected with diverse variants of UT and GABAAR subunits. After 24-h transfection, cell culture coverslips were placed in a small chamber (1.5 ml) on a stage of a right microscope DMLFSA (Leica, Heidelberg, Germany) and superfused continuously with the following bath solution containing (in mM): NaCl, 150; KCl, 2.5; HEPES, 5; CaCl2, 2; MgCl2, 1; glucose, 10 (pH 7.4 adjusted with NaOH). The patch pipettes were fabricated from 1.5 mm (outer diameter) soft glass tubes on a two-step vertical pipette puller (List-Medical, L/M-3P-A, Darmstadt, Germany). […] ATP and GTP were added to the internal solution used to fill electrode just before recording. All recordings were obtained at RT with cells voltage-clamped at −70 mV. The GABAA receptor agonist isoguvacine was prepared in the extracellular solution and was applied to cells by pneumatic pressure ejection. To prevent desenzitization, isoguvacine was more often ejected during 5 s at 2-min intervals. ATP, GTP, or guanosine 5′-O-(2-thiodiphosphate) (GDPβS) were administered through the patch pipette solution. We investigated the effect of competitive inhibition of GDP-GTP exchange by including GDPβS in the pipette solution (in addition to the normal amount of GTP). For GDPβS and the KIC, immediately following patch rupture, GABA current recordings were performed and the experiment was commenced after an equilibration period of 15 min.
All peptide ligands, inhibitors or allosteric modulators of the GABAA receptor function were applied via gravity through a plastic tubing positioned in the vicinity of the cell body in order to maintain a sustained perfusion. In these conditions, drugs could reach the cell of interest after 30 s of perfusion. Isoguvacine was applied focally by pneumatic pressure ejection from a micropipette.

[5] = target: T3, human urotensin II receptor UT, stably expressed in CHO (CHO-UT) (human) (UniProt Q9UKP6)
T3 sequence: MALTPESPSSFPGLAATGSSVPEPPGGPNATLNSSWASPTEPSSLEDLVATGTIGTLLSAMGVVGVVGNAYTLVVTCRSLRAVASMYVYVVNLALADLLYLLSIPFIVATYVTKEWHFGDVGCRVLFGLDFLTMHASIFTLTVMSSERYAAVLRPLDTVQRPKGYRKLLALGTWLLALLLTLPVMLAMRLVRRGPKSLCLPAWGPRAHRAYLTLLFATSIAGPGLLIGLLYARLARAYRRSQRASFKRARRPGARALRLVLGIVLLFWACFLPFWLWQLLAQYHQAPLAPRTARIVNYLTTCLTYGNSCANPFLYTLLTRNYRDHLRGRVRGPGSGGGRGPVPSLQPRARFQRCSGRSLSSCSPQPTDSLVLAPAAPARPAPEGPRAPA

[6] = target: T3, human urotensin II receptor UT, stably expressed in CHO (CHO-UT) (human); remark: listed apart in the source

Molecule: URP: paralog urotensin II-related peptide sharing the fully conserved C-terminal cyclic CFWKYC core
Reversibility of [Ca^2+]c increase during washout ([2]; 10^−8 M): totally recovered after 16-min washout; also recorded: recovered to the basal line level | Increase of the amplitude of baseline [Ca^2+]c ([2]; hUII and URP 10^−8 M, [Orn^5]-URP 10^−6 M, mean from 9 to 25 cells): 341% | Effect on Iso-evoked current in the absence of UT [3]: failed to affect the amplitude of the current | Inhibition of Iso-evoked current ([4]; 10^−8 M, Iso 10^−4 M, mean ± SEM, hUII n = 54, URP n = 12): 22.9±3.5% | Persistence/reversibility of current inhibition during washout ([4]; 10^−8 M, Iso-evoked current): slightly recovered during washout; also recorded: triggers a reversible inhibition

Molecule: [Orn^5]-URP (peptide)
[Ca^2+]c increase (Fura-2 imaging) in CHO-UT, [Orn^5]-URP 10^-6 M; behaved as a partial agonist and prevented the sustained effect of hUII on [Ca^2+]c [5]: 265%

More lines, main results first:

Effect/profile of antagonist on [Ca^2+]c ([2]; 10^−6 M): failed to evoke a [Ca^2+]c rise
Molecule: Cc1cc(NC(=O)NCCN2CCC(O)(Cc3ccccc3)CC2)c2ccccc2n1.O=S(=O)(O)O [palosuran, 1-[2-(4-benzyl-4-hydroxy-piperidin-1-yl)-ethyl]-3-(2-methyl-quinolin-4-yl) -urea sulfate salt]
Affinity toward human UT [1]: high affinity | Effect on hUII-induced [Ca^2+]c increase ([2]; antagonist 10^−6 M before and during hUII): completely blocked the hUII-induced [Ca^2+]c increase; also recorded: counteracts the UII-evoked [Ca^2+]c increase | Effect on Iso-evoked current in the absence of UT [3]: did not modulate the Iso-evoked current | Effect of UT antagonist alone on Iso-evoked current ([4]; 10^−6 M, n = 7–54): mimicked the hUII-induced inhibition of the Iso-evoked current; also recorded: mimics the effect of UII by inhibiting the chloride current | Effect on prolonged/irreversible action of hUII during washout on Iso-evoked current ([4]; antagonist 10^−6 M with hUII): abolished the irreversible action of hUII during washout

increase of the amplitude of baseline [Ca^2+]c (Fura-2 imaging) in CHO-UT, URP 10^-8 M in the bath; recovered after 16-min washout [5]: 341% | inhibition of the isoguvacine-evoked chloride current (whole-cell patch clamp) in CHO-UT co-expressing alpha2beta3gamma2 GABAAR, URP 10^-8 M (n = 12) [6]: 22.9%
Molecule: ACFWKYCV (also: cyclic CFWKYC core, bridge type not given here) [urotensin II-related peptide]
